Experimental data taken from patent EP0308781A2, “Antimycotic preparations” (BAYER AG, priority 1987, dated 1989).

Test system: Candida-Zellen
Experiment: Antimycotic in vivo efficacy (oral) in mouse candidosis
Set-up: species or system Mäuse vom Typ SPF-CF1; key to Wirkung: + + + + +: sehr gute Wirkung = 90 % Überlebende am 6.Tag.p.i.; + + + +: gute Wirkung = 80 % Überlebende am 6.Tag.p.i.; + + +: Wirkung = 60 % Überlebende am 6.Tag.p.i.; + +: schwache Wirkung = 40 % Überlebende am 6.Tag.p.i.; +: Spur Wirkung = unter 40 % Überlebende am 6. Tag p.i.; k.W.: kein Unterschied zur unbehandelten Infektionskontrolle
Conditions: for Wirkung: mice infected i.v. with 1 - 2 x 10^6 Candida cells, oral treatment with 10 - 100 mg/kg each, one hour before and seven hours after infection, survivors on day 6 p.i.
Method: Antimykotische in-vivo-Wirksamkeit (oral) bei Mäusecandidose
Mäuse vom Typ SPF-CF1 wurden intravenös mit […] logarithmisch wachsenden Candida-Zellen, die in physiologischer Kochsalzlösung suspendiert werden, infiziert. Eine Stunde vor und sieben Stunden nach der Infektion werden die Tiere mit jeweils 10 - 100 mg/kg Körpergewicht der Präparate oral behandelt.
Unbehandelte Tiere starben 3 bis 6 Tage post infektionem. Die Überlebensrate am 6.Tag post infektionem betrug bei unbehandelten Kontrolltieren etwa 5 %.

In the case of `OC(Cn1cncn1)(c1ccc(Cl)cc1)C1(F)CC1` (stereo not shown) [(A)], the Wirkung is reported as “k.W”.
With `OC(Cn1cncn1)(c1ccccc1)C1(F)CC1` (stereo not shown) [(B)] the Wirkung was “k.W”.
In the case of `OC(Cc1ccc(F)cc1)(Cn1cncn1)C1(Cl)CC1` (stereo not shown) [(I-1), 1-(4-Fluorphenyl)-2-(1-chlor-cyclopropyl)-3-(1,2,4-triazol-1-yl)-propan-2-ol], the Wirkung is reported as “+ + + + + (sehr gute Wirkung = 90 % Überlebende am 6.Tag.p.i.)” and the “Wirkung (comparison with known compounds)” value (oral, mouse candidosis, statement in words, compared with (A) and (B)) is reported as “bessere Wirkung”.
